Assay results as given in patent publication US11066392B2, “Inhibitors of indoleamine 2,3-dioxygenase and methods of their use” (BRISTOL-MYERS SQUIBB COMPANY, priority 2017, dated 2021).

target: indoleamine 2,3-dioxygenase (IDO) (Homo sapiens, UniProt P14902); test: HeLa cell-based indoleamine 2,3-dioxygenase (IDO) assay (kynurenine production, IFNγ-stimulated); conditions: HeLa cells, IFNγ 25 ng/mL, 48 hour incubation; read-out: IDO Hela IC50
Procedure: Assessment of inhibitor activity in HeLa cell-based indoleamine 2,3-dioxygenase (IDO) assay. HeLa (ATCC® CCL-2) cells were obtained from the ATCC® and cultured in Dulbecco's Modified Eagle Medium supplemented with 4.5 g/L glucose, 4.5 […] sodium pyruvate (#10-013-CV, Corning), 2 mM L-alanyl-L-glutamine dipeptide (#35050-061, Gibco), 100U/mL penicillin, 100 μg/mL streptomycin (#SV30010, HyClone) and 10% fetal bovine serum (#SH30071.03 HyClone). Cells were maintained in a humidified incubator at 37° C. in 5% CO2. […] After 24 hours, the media was aspirated and replaced with media containing IFNγ (#285-IF/CF, R&D Systems) at a final concentration of 25 ng/mL. A serial dilution of each test compound was added to the cells in a total volume of 200 μL of culture medium. After a further 48 hour incubation, 170 μL of supernatant was transferred from each well to a fresh 96-well plate. 12.1 μL of 6.1N trichloroacetic acid (#T0699, Sigma-Aldrich) was added to each well and mixed, followed by incubation at 65° C. for 20 minutes to hydrolyze N-formylkynurenine, the product of indoleamine 2,3-dioxygenase, to kynurenine. The reaction mixture was then centrifuged for 10 mins at 500×g to sediment the precipitate. 100 μL of the supernatant was transferred from each well to a fresh 96-well plate. 100 μl of 2% (w/v) p-dimethylaminobenzaldehyde (#15647-7, Sigma-Aldrich) in acetic acid (#A6283, Sigma-Aldrich) was added to each well mixed and incubated at room temperature for 20 mins. Kynurenine concentrations were determined by measuring absorbance at 480 nm and calibrating against an L-kynurenine (#K8625, Sigma-Aldrich) standard curve using a SPECTRAMAX® M2e microplate reader (Molecular Devices). The percentage activity at each inhibitor concentration was determined and IC50 values assessed using nonlinear regression. Activity for compounds described herein is provided in Table 1, wherein potency levels are provided as follows: (Potency: IDO IC50: […])

Sequence of indoleamine 2,3-dioxygenase (IDO) (P14902 whole entry): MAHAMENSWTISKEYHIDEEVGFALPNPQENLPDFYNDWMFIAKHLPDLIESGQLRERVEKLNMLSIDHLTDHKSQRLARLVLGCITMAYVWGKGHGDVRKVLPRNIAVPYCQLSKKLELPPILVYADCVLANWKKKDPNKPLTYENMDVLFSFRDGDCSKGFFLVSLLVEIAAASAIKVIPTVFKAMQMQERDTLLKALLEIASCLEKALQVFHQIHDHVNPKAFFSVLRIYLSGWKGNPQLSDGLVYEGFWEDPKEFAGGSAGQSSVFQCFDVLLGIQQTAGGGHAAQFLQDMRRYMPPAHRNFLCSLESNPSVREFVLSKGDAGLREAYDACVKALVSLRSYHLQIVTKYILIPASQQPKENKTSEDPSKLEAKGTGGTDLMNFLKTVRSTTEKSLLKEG

In order of rising IC50:
1. CCC(NC(=O)c1cnc(OC)nc1)[C@H]1CC[C@@H](c2ccnc(OC)c2C(F)F)CC1 (single isomer, unassigned) [Example 25b, N-(1-((1s,4s)-4-(3-(Difluoromethyl)-2-methoxypyridin-4-yl)cyclohexyl)propyl)-2-methoxypyrimidine-5-carboxamide]  10 nM
2. CCC(NC(=O)c1ccnc(N2CCOCC2)c1)C1CCC(c2ccnc(OC)c2C(F)F)CC1 (single isomer, unassigned) [Example 26b, N-(1-((1s,4s)-4-(3-(Difluoromethyl)-2-methoxypyridin-4-yl)cyclohexyl)propyl)-2-morpholinoisonicotinamide]  10 nM
3. CCC(NC(=O)c1ccc(N)nc1)[C@H]1CC[C@@H](c2ccnc(OC)c2C)CC1 (single isomer, unassigned) [Example 29b, 6-Amino-N-(1-((1s,4s)-4-(2-methoxy-3-methylpyridin-4-yl)cyclohexyl)propyl)nicotinamide]  10 nM
4. CCC(NC(=O)c1ccc(OC)nc1)C1CCC(c2ccnc(OC(F)F)c2)CC1 (single isomer, unassigned) [Example 30b, N-(1-(4-(2-(Difluoromethoxy)pyridin-4-yl)cyclohexyl)propyl)-6-methoxynicotinamide]  20 nM
5. CC[C@@H](NC(=O)c1ccc(OC)nc1)[C@H]1CC[C@@H](c2cnc3ccccc3c2)CC1 (single isomer, unassigned) [Example 20d, 6-Methoxy-N-(1-(4-(quinolin-3-yl)cyclohexyl)propyl)nicotinamide]  60 nM
6. CCC(NC(=O)c1ccc(OC)nc1)C1CCC(c2cccc(=O)n2C)CC1 (single isomer, unassigned) [Example 32b, 6-Methoxy-N-(1-(4-(1-methyl-6-oxo-1,6-dihydropyridin-2-yl)cyclohexyl)propyl)nicotinamide]  80 nM
7. CC[C@@H](NC(=O)c1ccc(OC)nc1)[C@H]1CC[C@@H](c2ccn(C)c(=O)c2)CC1 (single isomer, unassigned) [Example 31c, 6-Methoxy-N-(1-(4-(1-methyl-2-oxo-1,2-dihydropyridin-4-yl)cyclohexyl)propyl)nicotinamide]  190 nM
8. CCC(NC(=O)c1ccc(OC)nc1)[C@H]1CC[C@@H](c2cc(C)ccn2)CC1 (single isomer, unassigned) [Example 45a, (±)-6-methoxy-N-(1-(4-(4-methylpyridin-2-yl)cyclohexyl)propyl)nicotinamide]  220 nM
9. CC[C@@H](NC(=O)c1ccc(OC)nc1)[C@H]1CC[C@@H](c2cnc3ccccc3c2)CC1 (single isomer, unassigned) [Example 20c, 6-Methoxy-N-(1-(4-(quinolin-3-yl)cyclohexyl)propyl)nicotinamide]  240 nM
10. CC[C@@H](NC(=O)c1ccc(OC)nc1)[C@H]1CC[C@@H](c2cnc3ccccc3c2)CC1 (single isomer, unassigned) [Example 20a, 6-Methoxy-N-(1-(4-(quinolin-3-yl)cyclohexyl)propyl)nicotinamide]  250 nM
11. CCC(NC(=O)c1ccc(OC)nc1)C1CCC(c2ccnc(OC(F)F)c2)CC1 (single isomer, unassigned) [Example 30d, N-(1-(4-(2-(Difluoromethoxy)pyridin-4-yl)cyclohexyl)propyl)-6-methoxynicotinamide]  250 nM
12. CC[C@@H](NC(=O)c1cnc(OC)nc1)[C@H]1CC[C@@H](c2ccnc(OC)c2F)CC1 (single isomer, unassigned) [Example 21d, N-(1-(4-(3-Fluoro-2-methoxypyridin-4-yl)cyclohexyl)propyl)-2-methoxypyrimidine-5-carboxamide]  380 nM
13. CCC(NC(=O)c1ccc(OC)nc1)C1CCC(c2ccnc(F)c2C)CC1 (single isomer, unassigned) [Example 27a, N-(1-((1s,4s)-4-(2-Fluoro-3-methylpyridin-4-yl)cyclohexyl)propyl)-6-methoxynicotinamide]  490 nM
14. CCC(NC(=O)c1ccc(OC)nc1)C1CCC(c2ccnc(OC)c2C)CC1 (single isomer, unassigned) [Example 28a, 6-Methoxy-N-(1-((1s,4s)-4-(2-methoxy-3-methylpyridin-4-yl)cyclohexyl)propyl)nicotinamide]  540 nM
15. CCC(NC(=O)c1ccc(OC)nc1)[C@H]1CC[C@@H](c2cc(C)ccn2)CC1 (single isomer, unassigned) [Example 45b, (±)-6-methoxy-N-(1-(4-(4-methylpyridin-2-yl)cyclohexyl)propyl)nicotinamide]  620 nM
16. CCC(NC(=O)c1ccc(OC)nc1)C1CCC(c2cccc(=O)n2C)CC1 (single isomer, unassigned) [Example 32c, 6-Methoxy-N-(1-(4-(1-methyl-6-oxo-1,6-dihydropyridin-2-yl)cyclohexyl)propyl)nicotinamide]  740 nM
17. CCC(NC(=O)c1ccc(OC)nc1)C1CCC(c2ccnc(OC)c2C(F)F)CC1 (single isomer, unassigned) [Example 24b, N-(1-((1s,4s)-4-(3-(Difluoromethyl)-2-methoxypyridin-4-yl)cyclohexyl)propyl)-6-methoxynicotinamide]  900 nM
18. CC[C@@H](NC(=O)c1ccc(OC)nc1)[C@H]1CC[C@@H](c2ccn(C)c(=O)c2)CC1 (single isomer, unassigned) [Example 31b, 6-Methoxy-N-(1-(4-(1-methyl-2-oxo-1,2-dihydropyridin-4-yl)cyclohexyl)propyl)nicotinamide]  970 nM

same assay, conditions: HeLa cells; potency class; read-out: Patent Potency Hela IC50 A < 10 nM, B > 10 nM, C > 100 nM

`CC[C@@H](NC(=O)c1ccc(OC)nc1)[C@H]1CC[C@@H](c2cnc3ccccc3c2)CC1` (single isomer, unassigned) [Example 20b, 6-Methoxy-N-(1-(4-(quinolin-3-yl)cyclohexyl)propyl)nicotinamide] and `CC[C@@H](NC(=O)c1ccc(OC)nc1)[C@H]1CC[C@@H](c2ccn(C)c(=O)c2)CC1` (single isomer, unassigned) [Example 31a, 6-Methoxy-N-(1-(4-(1-methyl-2-oxo-1,2-dihydropyridin-4-yl)cyclohexyl)propyl)nicotinamide] cannot be ordered by IC50: > 100 nM for the first, > 100 nM for the second.

Going from `CC[C@@H](NC(=O)c1cnc(OC)nc1)[C@H]1CC[C@@H](c2ccnc(OC)c2F)CC1` (single isomer, unassigned) [Example 21c, N-(1-(4-(3-Fluoro-2-methoxypyridin-4-yl)cyclohexyl)propyl)-2-methoxypyrimidine-5-carboxamide] to `CCC(NC(=O)c1ccc(OC)nc1)C1CCC(c2ccnc(OC)c2C)CC1` (single isomer, unassigned) [Example 28b, 6-Methoxy-N-(1-((1s,4s)-4-(2-methoxy-3-methylpyridin-4-yl)cyclohexyl)propyl)nicotinamide], the IC50 falls from > 100 nM to < 10 nM. The second is the more potent here.

`CCC(NC(=O)c1ccc(OC)nc1)C1CCC(c2ccnc(OC)c2C(F)F)CC1` (single isomer, unassigned) [Example 24a, N-(1-((1s,4s)-4-(3-(Difluoromethyl)-2-methoxypyridin-4-yl)cyclohexyl)propyl)-6-methoxynicotinamide] and `CCC(NC(=O)c1ccc(OC)nc1)C1CCC(c2ccnc(F)c2C)CC1` (single isomer, unassigned) [Example 27b, N-(1-((1s,4s)-4-(2-Fluoro-3-methylpyridin-4-yl)cyclohexyl)propyl)-6-methoxynicotinamide] cannot be ordered by IC50: < 10 nM for the first, < 10 nM for the second.

`CCC(NC(=O)c1ccnc(N2CCOCC2)c1)C1CCC(c2ccnc(OC)c2C(F)F)CC1` (single isomer, unassigned) [Example 26a, N-(1-((1s,4s)-4-(3-(Difluoromethyl)-2-methoxypyridin-4-yl)cyclohexyl)propyl)-2-morpholinoisonicotinamide] and `CC[C@@H](NC(=O)c1ccc(OC)nc1)[C@H]1CC[C@@H](c2ccn(C)c(=O)c2)CC1` (single isomer, unassigned) [Example 31d, 6-Methoxy-N-(1-(4-(1-methyl-2-oxo-1,2-dihydropyridin-4-yl)cyclohexyl)propyl)nicotinamide] cannot be ordered by IC50: > 100 nM for the first, > 100 nM for the second.

`CCC(NC(=O)c1ccc(OC)nc1)C1CCC(c2cccc(=O)n2C)CC1` (single isomer, unassigned) [Example 32a, 6-Methoxy-N-(1-(4-(1-methyl-6-oxo-1,6-dihydropyridin-2-yl)cyclohexyl)propyl)nicotinamide] was tested, and the IC50 was > 100 nM.
`CCC(NC(=O)c1ccc(OC)nc1)C1CCC(c2cccc(=O)n2C)CC1` (single isomer, unassigned) [Example 32d, 6-Methoxy-N-(1-(4-(1-methyl-6-oxo-1,6-dihydropyridin-2-yl)cyclohexyl)propyl)nicotinamide] was tested, and the IC50 was > 100 nM.
